The nature of series [1]: In vitro liver microsome metabolic stability study. The note with it: human liver microsomes 0.5 mg/mL, compound 1 μM, 37° C., up to 60 minutes; read-out: Intrinsic hepatic clearance CLint(liver). The format is in vitro ADME. The protocol:
Stock solution: 10 mM in DMSO.
Only 54 μL of microsomal working solution, 6 μL of NADPH regeneration system working solution, and 180 μL of stop solution were added to the blank plate.
LC-MS/MS analysis was performed.
A general note: Microsomes from liver hold many membrane-bound enzymes, among them those of drug oxidation.

A short description of series [2]: Plasma protein binding rate test, human (equilibrium dialysis). In kind it is in vitro ADME. The note with it: 37° C. The text has this:
(§1) The sample was thoroughly mixed.
On the technique in general: In equilibrium dialysis only unbound substance equilibrates across the membrane.

Series [3] in a line: Plasma protein binding rate test, cynomolgus monkey (equilibrium dialysis). In kind it is in vitro ADME. The note with it: 37° C., read-out: Plasma protein binding rate (%) in cynomolgus monkeys (converted).
From the text: as §1

Series [4] is described as follows: In vivo pharmacokinetic study in cynomolgus monkeys. On the set-up: species or system cynomolgus monkey. The note with it: male cynomolgus monkeys.
The nature of series [5]: Plasma protein binding rate test, SD rat (equilibrium dialysis). The format is in vitro ADME. The note with it: 37° C., read-out: Plasma protein binding rate (%) in SD rats (converted).
From the text: as §1

Series [6] in a line: Permeability test in MDR1-MDCKII monolayer cell model. The note with it: dog; for efflux ratio at 2.5 h, 2 µM: MDCK-MDR1, pH 7.4, ER=Papp(BA)/Papp(AB); for Papp A→B at 2.5 h, 2 µM: MDCK-MDR1, pH 7.4, pH 7.40, 2.5 hours, 37±1° C., read-out: Apparent permeability coefficient (Papp (AB)). The format is in vitro ADME. How it is done: Experimental objective: The permeability and efflux ratio of the compound of the present disclosure were determined using the MDR1-MDCKII monolayer cell model to assess its membrane permeability and potential for P-gp-mediated efflux transport.
Experimental protocol: MDR1-MDCKII cells (obtained from the Netherlands Cancer Institute) were seeded in 96-well plates (obtained from Corning) at a cell density of 3.33×10^5 cells/mL and cultured for 4 to 7 days to form confluent cell monolayers. Hank's balanced salt solution containing 10 mM HEPES (pH 7.40) was used as the transport buffer. The test compound was evaluated for bidirectional transport at a concentration of 2 μM, with the DMSO concentration in the incubation system maintained below 1%. After adding the samples, the cell plate was incubated at 37±1° C., 5% CO2, and saturated humidity for 2.5 hours. All samples were quantitatively analyzed using the LC-MS/MS method. The apparent permeability coefficient (Papp, cm/s) and efflux ratio (ER) were calculated using the following formula. Apparent permeability coefficient (Papp, cm/s) was calculated using the following formula: Papp=(dCr/dt)×Vr/(A×C0). Herein, dCr/dt represents the cumulative concentration of the compound at the receiving end per unit time (μM/s); Vr is the volume of the solution at the receiving end (with solution volumes at the apical and basolateral ends being 0.075 mL and 0.250 mL, respectively); A is the relative surface area of the cell monolayer (0.143 cm^2); C0 is the initial concentration of the test substance at the dosing end (μM) or the peak area ratio of the reference substance. The efflux ratio was calculated using the following formula: ER=Papp(BA)/Papp(AB).

Series [7] in a line: In vivo pharmacokinetics study in rats. Set-up: species or system SD rat. The conditions noted are these: male SD rats, oral 2 mg/kg; for AUC(0-t) at 24 h: read-out: AUC0-24 h.
The subject of series [8] is plasma protein. The experiment in a line: Plasma protein binding rate test, human (equilibrium dialysis). The format is in vitro ADME. The note with it: 37° C., 4 hours.
From the text: as §1

Series [9] relates to plasma protein. The experiment in a line: Plasma protein binding rate test, cynomolgus monkey (equilibrium dialysis). The note with it: 37° C., 4 hours. The format is in vitro ADME.
From the text: as §1

Series [10] has as its target T1, human CYP11B2 (Homo sapiens, UniProt P19099).
T1 construct: expressed in transfected cells; host or cells: human renal leiomyoma G402 cell line (monoclonal cells overexpressing human CYP11B2)
T1 sequence (P19099 25-503): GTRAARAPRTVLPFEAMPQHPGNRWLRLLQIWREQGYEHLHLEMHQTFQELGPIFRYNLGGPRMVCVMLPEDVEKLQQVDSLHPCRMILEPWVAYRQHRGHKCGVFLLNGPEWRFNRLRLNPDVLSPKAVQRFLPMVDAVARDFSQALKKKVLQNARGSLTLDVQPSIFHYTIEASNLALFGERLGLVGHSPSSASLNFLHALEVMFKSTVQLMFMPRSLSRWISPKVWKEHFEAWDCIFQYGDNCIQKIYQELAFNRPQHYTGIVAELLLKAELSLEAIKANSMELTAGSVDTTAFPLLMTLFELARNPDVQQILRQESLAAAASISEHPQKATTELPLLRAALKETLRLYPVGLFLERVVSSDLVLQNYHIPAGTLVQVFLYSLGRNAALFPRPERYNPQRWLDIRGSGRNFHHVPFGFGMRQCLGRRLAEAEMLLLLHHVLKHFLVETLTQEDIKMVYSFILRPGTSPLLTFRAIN
The experiment in a line: In vitro activity assay of monoclonal cells overexpressing human CYP11B2. The format is cell-based. The conditions noted are these: G402 cells overexpressing human CYP11B2; substrate 11-deoxycorticosterone; 16 hours; aldosterone by LCMS/MS. How it is done: The human renal leiomyoma G402 cell line overexpressing human CYP11B2 was selected to serve as a compound activity screening system.
• 2) Compound details: The test compound was prepared as a 10 μM working concentration using DMSO.
Day 1: Cells were digested, and human renal leiomyoma G402 cells overexpressing human CYP11B2 were resuspended to 1×10^5 cells/mL, with 100 μL seeded into a 96-well plate.
Day 2: The medium was replaced with DMEM/F12 containing 2.5% charcoal-stripped fetal bovine serum; test compounds were added: 5 μL of test compound was added to the cell culture medium to achieve final concentrations of 10000, 2500, 625, 156.25, 39.06, 9.77, 2.44, 0.61, 0.15, and 0 nM (with a DMSO content of 0.1%).
After one hour, the substrate was added: 30 mM 11-deoxycorticosterone was diluted 1500-fold with culture medium, and 5 μL was dispensed per well to achieve a final concentration of […], followed by incubation for 16 hours.
Day 3: The cell supernatant was collected and added to 200 μL of a methanol solution containing internal standards (internal standards: 35 ng/mL ketoprofen or 7.5 ng/mL carbamazepine or 5 ng/mL diphenhydramine or 10 ng/mL tolbutamide). The mixture was vortexed and centrifuged (4000×g, 4° C., 5 minutes). Then, 100 μL of the supernatant was taken and mixed with 100 μL of pure water. The mixture was centrifuged (4000 g, 4° C., 15 min), and the supernatant was analyzed by ESI-LCMS/MS. • 4) Data analysis:
Ratio=Aldosterone peak area/Internal standard peak area
Control activity %=(Ratio test compound/Ratio DMSO)×100%
“Ratio test compound” represents the Ratio values at different concentrations of the test compound.
“Ratio DMSO” represents the Ratio value without the addition of the test compound. • X=Log (compound concentration) • Y=Control activity %
The IC50 of the test compound was determined by fitting to a nonlinear regression equation using XLfit 5.5.0.

For series [11], the system named is patients with refractory hypertension. The note with it: cited from earlier work.
The mark [12] stands for this setting: cynomolgus monkey, plasma, oral 3 mg/kg.
The mark [13] stands for this setting: 2 mg dose, patients with refractory hypertension.

Each structure is given as a SMILES string.

As to `CCC(=O)N[C@@H]1CCCc2c(-c3ccc4c(ccc(=O)n4C)c3)cncc21` (single isomer, unassigned) [Compound 001], the CLint scaled at 1 µM in [1] was < 8.6 mL/min/kg. In addition, the fraction unbound at 4 h in series [2] is 0.239; in series [3], 0.254; in [5], 0.079. Moreover, the bioavailability turned out to be 120% in [4] (setting [12]) and 80% in series [7] (rat, plasma). Moreover, the half-life in series [4] (setting [12]) was 299 min; in [7] (rat, plasma), 277 min. Further, the Cmax in [4] (cynomolgus monkey, oral 3 mg/kg, plasma) came to 4000 nM; in series [7] (rat, plasma) it was 7.63 µM. Also, the AUC(0-t) at 24 h in [4] (cynomolgus monkey, oral 3 mg/kg, plasma, read-out: AUC0-24 h) was 23.2 µM·h; in series [7] (rat, plasma), 59.1 µM·h. Moreover, the efflux ratio at 2.5 h, 2 µM in series [6] came to 1.76. In addition, the Papp A→B at 2.5 h, 2 µM in series [6] was 17.2 ×10⁻⁶ cm/s.

`CCC(=NOC)NC1CCCc2c(-c3ccc4c(c3)CCC(=O)N4C)cncc21` (single isomer, unassigned) [Compound 005]: the fraction unbound at 4 h in series [2] is 0.106. For the same molecule, in [3], the fraction unbound at 4 h is 0.127. In addition, in series [5], the fraction unbound at 4 h is 0.102. Further, in series [6], the efflux ratio at 2.5 h, 2 µM was 0.7 and the Papp A→B at 2.5 h, 2 µM amounted to 23.1 ×10⁻⁶ cm/s. In addition, in [7] (rat, plasma), the bioavailability came to 111%, the half-life was 166 min, the highest level (Cmax) was 1.31 µM and the AUC(0-t) at 24 h stood at 7.8 µM·h.

As to `Cc1noc(C)c1C(=O)N[C@@H]1CCCc2c(-c3cc4ccc(=O)n(C)c4cc3F)cncc21` (single isomer, unassigned) [Compound 020], in [8], the “Human plasma protein binding rate (%)” value was 85.6%. Further, the “Plasma protein binding rate (%) in cynomolgus monkeys” value in series [9] amounted to 90.3%.

For `CCC(=O)NC1CCCc2c(-c3cc4ccc(=O)n(C)c4s3)cncc21` (single isomer, unassigned) [Compound 023], the “Human plasma protein binding rate (%)” value in series [8] is 69.6%. The “Plasma protein binding rate (%) in cynomolgus monkeys” value in series [9] is given as 69.0%. For the same molecule, in [4] (oral 1 mg/kg), the F is reported as 76.5% and the T1/2 is listed as 4.80 h. In [4] (oral 1 mg/kg, plasma), this molecule yielded an AUC0-24 h of 8.916 µM·h and a Cmax of 1320 nM. In series [7], this molecule came in with an F of 109% and a T1/2 of 3.6 h. Also, in [7] (plasma), the AUC0-24 h was 44.234 µM·h and the Cmax amounted to 6.92 µM.

As for `CCC(=O)N[C@@H]1CCCc2c(-c3ccc4c(c3)c(C)cc(=O)n4C)cncc21` (single isomer, unassigned) [Compound 027], in series [10], 62.7 nM corresponded to half-maximal inhibition (IC50).

Take `CCC(=O)NC1CCCc2c(-c3cc(F)c4c(c3)OCC(=O)N4C)cncc21` (single isomer, unassigned) [Compound 031]: the CLint scaled at 1 µM in [1] is < 8.6 mL/min/kg. The values for the fraction unbound at 4 h in [2] and in [3] were 0.193 and 0.203, respectively. Further, in [6], the efflux ratio at 2.5 h, 2 µM came to 0.89. Further, the Papp A→B at 2.5 h, 2 µM in series [6] was determined as 20 ×10⁻⁶ cm/s.

Consider `CCC(=O)NC1CCCc2c(-c3cc4c(cc3F)N(C)C(=O)CO4)cncc21` (single isomer, unassigned) [Compound 032], for which, in series [1], the CLint scaled at 1 µM was < 8.6 mL/min/kg. In series [2], the fraction unbound at 4 h is 0.151. In addition, the fraction unbound at 4 h in [3] is 0.205. In series [6], the efflux ratio at 2.5 h, 2 µM stood at 0.86 and the Papp A→B at 2.5 h, 2 µM came out at 22.6 ×10⁻⁶ cm/s.

The molecule `CCC(=O)NC1CCOc2c(-c3cc4ccc(=O)n(C)c4s3)cncc21` (single isomer, unassigned) [Compound 045] showed a fraction unbound at 4 h in [2] of 0.239. For the same molecule, the fraction unbound at 4 h in series [3] is 0.32. Further, in series [6], the efflux ratio at 2.5 h, 2 µM was found to be 1.3 and the Papp A→B at 2.5 h, 2 µM is 16.7 ×10⁻⁶ cm/s.

In the case of `CCC(=O)N[C@@H]1CCCc2c(-c3ccc4c(c3)CCC(=O)N4C)cncc21` [Baxdrostat], in [11] (setting [13]), the “office systolic and diastolic blood pressure” value was “efficacy in reducing office systolic and diastolic blood pressure”; the safety and tolerability result was “favorable safety and tolerability profiles”. In [11] (clinical studies), the aldosterone secretion levels entry is reported as “dose-dependent reduction” and the blood pressure entry is on record as “dose-dependent reduction”. For the same molecule, in series [11] (phase 2 trials), the blood pressure reduction result is reported as “significant blood pressure reduction”, the cortisol levels result is “no impact on cortisol levels”, the elevated blood potassium entry is on record as “rare occurrence of elevated blood potassium” and the steroid precursor accumulation entry is listed as “absence of steroid precursor accumulation”.

A word on the half-life: it is how long it takes for the measured level to halve. What is called Cmax is the highest concentration seen after dosing. As usually defined, the efflux ratio is a quotient of directional permeabilities that is used to spot active efflux. For orientation: IC50 means the concentration that inhibits the measured activity by half.
